According to paper PMC8426238, “Synthesis and preclinical evaluation of [^11C]MTP38 as a novel PET ligand for phosphodiesterase 7 in the brain” (European Journal of Nuclear Medicine and Molecular Imaging, 2021):

Key:
Test in all cases: off-target screen panel
Type in all cases: binding
Adenosine A2A = target: T1, Adenosine A2A (Homo sapiens, UniProt P29274); conditions: Human recombinant, [^3H]CGS-21680
T1 construct: purchased Eurofins Panlabs Discovery Services (Taiwan)

[1] = target: T2, Serotonin (5-Hydroxytryptamine) 5-HT3 (Homo sapiens, UniProt P46098); conditions: Human recombinant, [^3H]GR-65630
T2 construct: purchased Eurofins Panlabs Discovery Services (Taiwan)

Muscarinic M3 = target: T3, Muscarinic M3 (Homo sapiens, UniProt P20309); conditions: Human recombinant, [^3H]N-Methylscopolamine
T3 construct: purchased Eurofins Panlabs Discovery Services (Taiwan)
T3 sequence (P20309 whole entry): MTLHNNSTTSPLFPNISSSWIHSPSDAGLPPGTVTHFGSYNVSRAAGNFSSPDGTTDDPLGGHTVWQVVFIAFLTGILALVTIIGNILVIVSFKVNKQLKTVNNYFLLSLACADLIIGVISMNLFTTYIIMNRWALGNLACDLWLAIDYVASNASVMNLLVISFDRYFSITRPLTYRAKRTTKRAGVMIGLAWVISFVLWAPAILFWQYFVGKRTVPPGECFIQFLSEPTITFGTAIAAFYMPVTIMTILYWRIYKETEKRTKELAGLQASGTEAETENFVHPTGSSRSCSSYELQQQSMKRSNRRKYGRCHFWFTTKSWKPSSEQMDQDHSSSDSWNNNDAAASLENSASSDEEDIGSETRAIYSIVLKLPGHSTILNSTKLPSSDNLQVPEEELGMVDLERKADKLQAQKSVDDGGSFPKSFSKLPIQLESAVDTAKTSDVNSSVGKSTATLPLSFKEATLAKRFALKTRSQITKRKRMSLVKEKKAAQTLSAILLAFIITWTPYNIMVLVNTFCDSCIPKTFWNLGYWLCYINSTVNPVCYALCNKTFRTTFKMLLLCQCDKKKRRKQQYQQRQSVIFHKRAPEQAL

Muscarinic M1 = target: T4, Muscarinic M1 (Homo sapiens, UniProt P11229); conditions: Human recombinant, [^3H]N-Methylscopolamine
T4 construct: purchased Eurofins Panlabs Discovery Services (Taiwan)
T4 sequence (P11229 whole entry): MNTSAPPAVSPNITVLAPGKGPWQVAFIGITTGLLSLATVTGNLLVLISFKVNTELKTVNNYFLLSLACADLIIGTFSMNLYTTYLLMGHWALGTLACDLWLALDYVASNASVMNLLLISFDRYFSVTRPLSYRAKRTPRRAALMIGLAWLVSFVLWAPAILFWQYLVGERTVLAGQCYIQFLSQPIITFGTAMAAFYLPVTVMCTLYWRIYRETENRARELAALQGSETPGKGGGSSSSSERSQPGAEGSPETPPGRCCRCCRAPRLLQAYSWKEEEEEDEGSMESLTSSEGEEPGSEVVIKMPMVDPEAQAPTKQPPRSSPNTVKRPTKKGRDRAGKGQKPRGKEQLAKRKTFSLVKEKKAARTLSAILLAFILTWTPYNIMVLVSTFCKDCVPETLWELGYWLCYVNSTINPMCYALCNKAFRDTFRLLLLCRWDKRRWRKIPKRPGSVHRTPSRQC

[2] = target: T5, Transporter, Serotonin (5-Hydroxytryptamine) (SERT) (Homo sapiens, UniProt P31645); conditions: Human recombinant, [^3H]Paroxetine
T5 construct: purchased Eurofins Panlabs Discovery Services (Taiwan)

Glutamate, NMDA, Glycine = Glutamate, NMDA, Glycine (Rattus norvegicus, UniProt P35439); conditions: Rat cerebral cortex, [^3H]MDL 105,519
Chain of Glutamate, NMDA, Glycine (P35439 394-800 limits assumed): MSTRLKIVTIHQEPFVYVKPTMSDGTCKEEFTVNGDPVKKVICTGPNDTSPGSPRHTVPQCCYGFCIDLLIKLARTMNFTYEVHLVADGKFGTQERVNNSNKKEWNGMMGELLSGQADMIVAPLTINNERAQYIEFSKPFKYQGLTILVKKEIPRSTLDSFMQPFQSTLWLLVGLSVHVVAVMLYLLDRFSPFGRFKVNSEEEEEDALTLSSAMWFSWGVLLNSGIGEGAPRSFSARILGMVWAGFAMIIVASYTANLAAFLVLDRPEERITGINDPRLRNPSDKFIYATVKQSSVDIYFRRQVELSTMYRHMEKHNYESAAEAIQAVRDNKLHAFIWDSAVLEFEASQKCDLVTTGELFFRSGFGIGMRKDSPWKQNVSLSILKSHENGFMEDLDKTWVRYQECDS

Adenosine A1 = target: T6, Adenosine A1 (Homo sapiens, UniProt P30542); conditions: Human recombinant, [^3H]DPCPX
T6 construct: purchased Eurofins Panlabs Discovery Services (Taiwan)
T6 sequence (P30542 whole entry): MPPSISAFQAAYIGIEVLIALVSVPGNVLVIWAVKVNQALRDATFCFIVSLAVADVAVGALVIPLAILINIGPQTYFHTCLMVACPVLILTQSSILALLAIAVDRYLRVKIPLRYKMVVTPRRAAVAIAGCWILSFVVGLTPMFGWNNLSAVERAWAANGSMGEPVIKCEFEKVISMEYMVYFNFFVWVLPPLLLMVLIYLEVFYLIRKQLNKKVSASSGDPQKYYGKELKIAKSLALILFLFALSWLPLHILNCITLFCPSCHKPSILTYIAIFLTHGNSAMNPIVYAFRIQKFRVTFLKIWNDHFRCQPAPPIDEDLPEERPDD

Interleukin IL-1 R1 = target: T7, Interleukin IL-1 R1 (Homo sapiens, UniProt P14778); conditions: Human recombinant, [^125I]Interleukin-1β
T7 construct: purchased Eurofins Panlabs Discovery Services (Taiwan)

Tachykinin NK1 = target: T8, Tachykinin NK1 (Homo sapiens, UniProt P25103); conditions: Human recombinant, [^3H]Substance P
T8 construct: purchased Eurofins Panlabs Discovery Services (Taiwan)
T8 sequence (P25103 whole entry): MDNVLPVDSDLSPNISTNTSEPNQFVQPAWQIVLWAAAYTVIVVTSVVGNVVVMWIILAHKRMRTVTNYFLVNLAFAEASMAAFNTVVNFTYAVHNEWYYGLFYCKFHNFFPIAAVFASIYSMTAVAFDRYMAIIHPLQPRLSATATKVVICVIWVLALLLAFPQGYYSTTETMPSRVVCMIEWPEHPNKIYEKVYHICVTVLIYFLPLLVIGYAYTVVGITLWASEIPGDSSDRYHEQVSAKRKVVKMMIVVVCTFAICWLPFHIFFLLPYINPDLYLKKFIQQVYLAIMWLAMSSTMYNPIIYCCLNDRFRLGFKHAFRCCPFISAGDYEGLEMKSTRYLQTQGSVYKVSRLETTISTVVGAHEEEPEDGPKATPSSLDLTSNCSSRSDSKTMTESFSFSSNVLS

Dopamine D3 = target: T9, Dopamine D3 (Homo sapiens, UniProt P35462); conditions: Human recombinant, [^3H]Spiperone
T9 construct: purchased Eurofins Panlabs Discovery Services (Taiwan)

PDE4 = conditions: Rat brain, [^3H]Rolipram
Bradykinin B2 = target: T10, Bradykinin B2 (Homo sapiens, UniProt P30411); conditions: Human recombinant, [^3H]Bradykinin
T10 construct: purchased Eurofins Panlabs Discovery Services (Taiwan)
T10 sequence (P30411 whole entry): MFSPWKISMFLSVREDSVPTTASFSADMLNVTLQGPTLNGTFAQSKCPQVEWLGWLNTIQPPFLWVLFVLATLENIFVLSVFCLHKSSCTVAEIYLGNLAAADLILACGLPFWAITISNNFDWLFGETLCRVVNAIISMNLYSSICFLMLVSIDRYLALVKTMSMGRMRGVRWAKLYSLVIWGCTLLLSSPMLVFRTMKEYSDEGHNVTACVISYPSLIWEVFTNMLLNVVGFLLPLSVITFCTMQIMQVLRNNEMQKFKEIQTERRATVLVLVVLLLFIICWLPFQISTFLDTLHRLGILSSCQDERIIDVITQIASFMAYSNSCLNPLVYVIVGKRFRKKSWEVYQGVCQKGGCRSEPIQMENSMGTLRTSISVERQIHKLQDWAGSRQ

Dopamine D2S = target: T11, Dopamine D2S (Homo sapiens, UniProt P14416); conditions: Human recombinant, [^3H]Spiperone
T11 construct: purchased Eurofins Panlabs Discovery Services (Taiwan)

Endothelin ETA = target: T12, Endothelin ETA (Homo sapiens, UniProt P25101); conditions: Human recombinant, [^125I]Endothelin-1
T12 construct: purchased Eurofins Panlabs Discovery Services (Taiwan)
T12 sequence (P25101 21-427): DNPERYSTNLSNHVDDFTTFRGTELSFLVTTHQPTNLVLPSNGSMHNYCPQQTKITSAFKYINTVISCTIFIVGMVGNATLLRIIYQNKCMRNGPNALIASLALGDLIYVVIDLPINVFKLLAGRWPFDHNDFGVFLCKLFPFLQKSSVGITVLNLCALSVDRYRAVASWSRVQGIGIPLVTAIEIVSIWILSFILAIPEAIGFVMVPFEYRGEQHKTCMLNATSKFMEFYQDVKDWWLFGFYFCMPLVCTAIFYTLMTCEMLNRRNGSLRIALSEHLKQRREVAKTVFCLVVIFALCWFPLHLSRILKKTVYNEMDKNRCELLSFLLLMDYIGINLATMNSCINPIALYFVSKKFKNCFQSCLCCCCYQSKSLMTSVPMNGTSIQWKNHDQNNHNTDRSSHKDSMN

[3] = target: T13, Transporter, Norepinephrine (NET) (Homo sapiens, UniProt P23975); conditions: Human recombinant, [^125I]RTI-55
T13 construct: purchased Eurofins Panlabs Discovery Services (Taiwan)
T13 sequence (P23975 whole entry): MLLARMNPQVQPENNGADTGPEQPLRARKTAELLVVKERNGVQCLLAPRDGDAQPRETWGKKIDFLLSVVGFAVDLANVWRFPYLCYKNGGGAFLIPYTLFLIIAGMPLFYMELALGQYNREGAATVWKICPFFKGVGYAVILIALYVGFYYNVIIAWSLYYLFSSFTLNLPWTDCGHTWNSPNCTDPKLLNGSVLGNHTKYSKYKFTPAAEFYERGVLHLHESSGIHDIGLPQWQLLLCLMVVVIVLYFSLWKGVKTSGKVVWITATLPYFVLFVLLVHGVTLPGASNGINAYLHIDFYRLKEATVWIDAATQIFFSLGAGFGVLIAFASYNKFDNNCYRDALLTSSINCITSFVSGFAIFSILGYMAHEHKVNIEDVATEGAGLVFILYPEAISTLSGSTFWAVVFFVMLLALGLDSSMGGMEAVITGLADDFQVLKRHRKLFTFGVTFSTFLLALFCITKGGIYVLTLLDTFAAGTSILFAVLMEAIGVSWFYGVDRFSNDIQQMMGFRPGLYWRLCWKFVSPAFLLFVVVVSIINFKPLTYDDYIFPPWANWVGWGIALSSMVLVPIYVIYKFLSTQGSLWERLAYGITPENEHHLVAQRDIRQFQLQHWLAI

Adrenergic α2A = target: T14, Adrenergic α2A (Homo sapiens, UniProt P08913); conditions: Human recombinant, [^3H]Rauwolscine
T14 construct: purchased Eurofins Panlabs Discovery Services (Taiwan)
T14 sequence (P08913 whole entry): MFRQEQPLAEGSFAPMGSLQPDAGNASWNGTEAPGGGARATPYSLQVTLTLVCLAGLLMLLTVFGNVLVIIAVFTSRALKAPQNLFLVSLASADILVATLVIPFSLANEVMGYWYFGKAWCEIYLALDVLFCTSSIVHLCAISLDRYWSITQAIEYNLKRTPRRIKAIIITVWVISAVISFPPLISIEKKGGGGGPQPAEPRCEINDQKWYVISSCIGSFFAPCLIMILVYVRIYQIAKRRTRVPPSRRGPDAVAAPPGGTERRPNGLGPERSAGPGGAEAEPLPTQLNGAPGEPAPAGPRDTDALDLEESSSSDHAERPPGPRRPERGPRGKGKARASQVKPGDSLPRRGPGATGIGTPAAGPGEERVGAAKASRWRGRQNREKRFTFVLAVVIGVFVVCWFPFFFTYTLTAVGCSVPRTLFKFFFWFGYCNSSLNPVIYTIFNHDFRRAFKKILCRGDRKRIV

Opiate μ (OP3, MOP) = target: T15, Opiate μ (OP3, MOP) (Homo sapiens, UniProt P35372); conditions: Human recombinant, [^3H]Diprenorphine
T15 construct: purchased Eurofins Panlabs Discovery Services (Taiwan)
T15 sequence (P35372 whole entry): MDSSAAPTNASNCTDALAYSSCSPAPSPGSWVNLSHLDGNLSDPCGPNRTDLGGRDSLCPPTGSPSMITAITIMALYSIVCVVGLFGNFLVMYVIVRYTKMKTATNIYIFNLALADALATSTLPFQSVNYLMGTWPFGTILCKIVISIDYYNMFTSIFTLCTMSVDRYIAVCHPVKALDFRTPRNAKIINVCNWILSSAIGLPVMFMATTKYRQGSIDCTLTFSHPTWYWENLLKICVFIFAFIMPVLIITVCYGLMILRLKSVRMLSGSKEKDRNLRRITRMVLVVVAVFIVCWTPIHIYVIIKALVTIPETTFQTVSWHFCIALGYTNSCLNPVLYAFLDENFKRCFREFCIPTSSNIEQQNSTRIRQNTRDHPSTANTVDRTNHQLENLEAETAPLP

[4] = target: T16, Platelet Activating Factor (PAF) (Homo sapiens, UniProt P25105); conditions: Human platelets, [^3H]PAF
T16 construct: purchased Eurofins Panlabs Discovery Services (Taiwan)
T16 sequence (P25105 whole entry): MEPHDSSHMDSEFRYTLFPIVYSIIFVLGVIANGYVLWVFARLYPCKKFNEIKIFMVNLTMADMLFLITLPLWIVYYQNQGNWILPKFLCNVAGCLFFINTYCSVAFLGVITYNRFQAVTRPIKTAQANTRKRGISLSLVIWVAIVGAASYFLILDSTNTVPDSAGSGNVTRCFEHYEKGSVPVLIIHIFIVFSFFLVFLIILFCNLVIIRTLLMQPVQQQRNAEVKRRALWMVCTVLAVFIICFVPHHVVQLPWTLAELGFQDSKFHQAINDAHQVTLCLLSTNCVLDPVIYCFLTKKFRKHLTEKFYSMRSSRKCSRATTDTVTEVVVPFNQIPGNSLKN

C[C@@H]1CC[C@H](C)N(c2nnc3c(N)ncc(C#N)n23)C1 (relative stereo) [MTP38, 8-amino-3-(2S*,5R*-dimethyl-1-piperidyl)-[1,2,4]triazolo[4,3-a]pyrazine-5-carbonitrile]
inhibition at 1 µM (Adenosine A2A): 4% | inhibition at 1 µM [1]: -11% | inhibition at 1 µM (Muscarinic M3): -21% | inhibition at 1 µM (Muscarinic M1): -20% | inhibition at 1 µM [2]: -14% | inhibition at 1 µM (Glutamate, NMDA, Glycine): -15% | inhibition at 1 µM (Adenosine A1): -12% | inhibition at 1 µM (Interleukin IL-1 R1): -5% | inhibition at 1 µM (Tachykinin NK1): 9% | inhibition at 1 µM (Dopamine D3): 0% | Inhibition (%) at 1 μM (PDE4): 74% | inhibition at 1 µM (Bradykinin B2): 2% | inhibition at 1 µM (Dopamine D2S): 4% | inhibition at 1 µM (Endothelin ETA): -10% | inhibition at 1 µM [3]: 6% | inhibition at 1 µM (Adrenergic α2A): 4% | inhibition at 1 µM (Opiate μ (OP3, MOP)): 4% | inhibition at 1 µM [4]: 4%
